Measured values as given in ChEMBL document CHEMBL1932937, “Inhibition of noroviruses by piperazine derivatives” (Bioorg Med Chem Lett, 2012).
pEC50: −log10 of the molar value.

How the values were obtained:
Norovirus = assay: Antiviral activity against Norovirus infected in human HG23 cells assessed as inhibition of viral replication after 24 hrs; assay type: functional; details: HG23, 24 h, read-out: ED50 (the source's name)
[1] = Cytotoxicity against human HG23 cells after 48 hrs; assay type: cell-based; details: read-out: TD50
[2] = Therapeutic index, ratio of TD50 for HG23 cells to ED50 for Norovirus infected in human HG23 cells; assay type: cell-based; details: read-out: Ratio TD50/ED50

pEC50 (Norovirus)	Structure (SMILES)	CC50 at 48 h [1]	selectivity ratio [2]
< 4.70	O=C(c1cccc(F)c1)N1CCN(Cc2ccccc2)CC1		
< 4.70	O=C1CC(C(=O)N2CCN(Cc3ccccc3)CC2)CN1CCc1ccccc1 (stereo not drawn)		
4.90	N#Cc1ccc(S(=O)(=O)N2CCN(Cc3cccc(Oc4ccccc4)c3)CC2)cc1	119 µM	
< 4.70	O=C(N1CCOCC1)N1CCN(Cc2ccccc2)CC1		
5.09	O=C(c1ccccc1Oc1ccccc1)N1CCN(Cc2ccccc2)CC1	18.5 µM	
5.55	O=C(c1cccc(Oc2ccccc2)c1)N1CCN(Cc2ccccc2)CC1	11.4 µM	
< 4.70	O=C(c1ccc(Oc2ccccc2)cc1)N1CCN(Cc2ccccc2)CC1		
5.17	CCCCS(=O)(=O)N1CCN(Cc2cccc(Oc3ccccc3)c2)CC1	121 µM	18
5.26	O=C(c1cccc(Oc2ccccc2)c1)N1CCN(Cc2cccc(Oc3ccccc3)c2)CC1	15.6 µM	
< 4.70	O=C(c1ccco1)N1CCN(Cc2ccccc2)CC1		
< 4.70	O=C(c1ccc(O)cc1)N1CCN(Cc2cccc(Oc3ccccc3)c2)CC1		
5.07	COc1ccc(Cn2cc(C(=O)N3CCN(Cc4ccccc4)CC3)nn2)cc1	62.5 µM	
5.14	COc1ccc(CN2CC(C(=O)N3CCN(Cc4ccccc4)CC3)CC2=O)cc1 (stereo not drawn)	155 µM	
< 4.70	O=C(c1cn(Cc2cccc(F)c2)nn1)N1CCN(Cc2ccccc2)CC1		
5.25	c1ccc(Oc2cccc(CN3CCN(Cc4cccc(Oc5ccccc5)c4)CC3)c2)cc1	75.4 µM	
< 4.70	N#Cc1ccc(C(=O)N2CCN(Cc3cccc(Oc4ccccc4)c3)CC2)cc1		
< 4.70	O=C(c1cn(CSc2ccccc2)nn1)N1CCN(Cc2ccccc2)CC1		
< 4.70	O=C1CC(C(=O)N2CCN(Cc3ccccc3)CC2)CN1Cc1ccccc1 (stereo not drawn)		
< 4.70	CC(C)Oc1ccc(C(=O)N2CCN(Cc3cccc(Oc4ccccc4)c3)CC2)cc1		
< 4.70	O=C1CC(C(=O)N2CCN(Cc3ccccc3)CC2)CN1Cc1ccco1 (stereo not drawn)		
< 4.70	COC(=O)c1ccc(Cn2cc(C(=O)N3CCN(Cc4ccccc4)CC3)nn2)cc1		
5.42	O=C(c1ccc(Oc2ccccc2)cc1)N1CCN(Cc2cccc(Oc3ccccc3)c2)CC1	23.5 µM	
< 4.70	Oc1cccc(CN2CCN(Cc3cccc(Oc4ccccc4)c3)CC2)c1		
5.35	COc1ccc(C(=O)N2CCN(Cc3cccc(Oc4ccccc4)c3)CC2)cc1	25.4 µM	
< 4.70	O=C(c1cccc(Cl)c1)N1CCN(Cc2ccccc2)CC1		
< 4.70	O=C(c1cn(Cc2ccc(F)cc2)nn1)N1CCN(Cc2ccccc2)CC1		
5.07	CC(C)Oc1ccc(CN2CCN(Cc3cccc(Oc4ccccc4)c3)CC2)cc1	31.5 µM	
5.11	CCCOc1ccc(C(=O)N2CCN(Cc3ccccc3)CC2)cc1	95.3 µM	

Structure (SMILES)	pEC50 (Norovirus)	CC50 at 48 h [1]	selectivity ratio [2]
COc1ccc(CC(=O)N2CCN(Cc3ccccc3)CC2)cc1	< 4.70		
O=C(Cc1ccc(Cl)cc1)N1CCN(Cc2cccc(Oc3ccccc3)c2)CC1	< 4.70		
